In assay [1] the target is Dual specificity protein kinase CLK1 (Homo sapiens, UniProt P49759). The assay is described as follows: Selectivity interaction (Kinase panel (Z-LYTE Assay)) EUB0001632a CLK1. As to conditions: at 10 µM.
In assay [2] the target is T1, Serine/threonine-protein kinase LATS1 (Homo sapiens) (UniProt O95835).
T1 sequence (whole entry): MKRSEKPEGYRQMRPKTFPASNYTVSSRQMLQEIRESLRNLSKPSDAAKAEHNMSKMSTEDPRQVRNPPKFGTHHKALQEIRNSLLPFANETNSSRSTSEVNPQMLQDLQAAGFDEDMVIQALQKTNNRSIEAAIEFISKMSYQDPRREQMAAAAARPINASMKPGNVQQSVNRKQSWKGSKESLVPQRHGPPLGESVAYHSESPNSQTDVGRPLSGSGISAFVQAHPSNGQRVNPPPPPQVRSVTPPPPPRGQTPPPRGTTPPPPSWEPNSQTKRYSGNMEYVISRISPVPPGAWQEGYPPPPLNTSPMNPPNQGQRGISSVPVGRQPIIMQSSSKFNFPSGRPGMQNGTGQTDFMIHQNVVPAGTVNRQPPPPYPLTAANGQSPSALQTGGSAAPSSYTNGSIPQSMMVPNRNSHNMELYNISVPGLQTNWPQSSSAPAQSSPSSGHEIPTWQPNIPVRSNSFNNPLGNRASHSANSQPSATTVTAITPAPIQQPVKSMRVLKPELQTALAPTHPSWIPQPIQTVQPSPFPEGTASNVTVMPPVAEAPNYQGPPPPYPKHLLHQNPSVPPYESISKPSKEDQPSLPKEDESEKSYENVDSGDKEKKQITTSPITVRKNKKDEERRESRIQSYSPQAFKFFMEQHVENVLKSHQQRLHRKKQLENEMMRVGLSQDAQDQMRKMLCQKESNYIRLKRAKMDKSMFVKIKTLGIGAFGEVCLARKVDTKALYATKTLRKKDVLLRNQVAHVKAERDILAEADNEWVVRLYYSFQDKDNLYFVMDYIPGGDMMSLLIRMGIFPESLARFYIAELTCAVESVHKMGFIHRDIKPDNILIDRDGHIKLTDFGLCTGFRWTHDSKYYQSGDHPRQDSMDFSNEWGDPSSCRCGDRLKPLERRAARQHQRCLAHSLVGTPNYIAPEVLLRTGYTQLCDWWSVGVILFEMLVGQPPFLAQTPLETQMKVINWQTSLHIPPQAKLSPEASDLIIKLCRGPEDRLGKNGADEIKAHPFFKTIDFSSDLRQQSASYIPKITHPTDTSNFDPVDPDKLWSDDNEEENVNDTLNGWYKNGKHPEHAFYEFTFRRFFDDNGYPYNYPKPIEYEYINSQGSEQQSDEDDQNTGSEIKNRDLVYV
In words: Selectivity interaction (ActivX KiNativ screen (ex vivo kinase selectivity in human PBMCs)) EUB0001619a LATS1. It is filed as cell-based. As to conditions: PBMC, at 1 µM.

For assay [3], the target named is Mitogen-activated protein kinase kinase kinase kinase 5 (Homo sapiens) (UniProt Q9Y4K4). In words: Selectivity interaction (ActivX KiNativ screen (ex vivo kinase selectivity in human PBMCs)) EUB0001619a MAP4K5. It is filed as cell-based. Conditions: PBMC, at 1 µM.
The target in assay [4] is T2, Serine/threonine-protein kinase MAK (Homo sapiens) (UniProt P20794).
T2 sequence (whole entry): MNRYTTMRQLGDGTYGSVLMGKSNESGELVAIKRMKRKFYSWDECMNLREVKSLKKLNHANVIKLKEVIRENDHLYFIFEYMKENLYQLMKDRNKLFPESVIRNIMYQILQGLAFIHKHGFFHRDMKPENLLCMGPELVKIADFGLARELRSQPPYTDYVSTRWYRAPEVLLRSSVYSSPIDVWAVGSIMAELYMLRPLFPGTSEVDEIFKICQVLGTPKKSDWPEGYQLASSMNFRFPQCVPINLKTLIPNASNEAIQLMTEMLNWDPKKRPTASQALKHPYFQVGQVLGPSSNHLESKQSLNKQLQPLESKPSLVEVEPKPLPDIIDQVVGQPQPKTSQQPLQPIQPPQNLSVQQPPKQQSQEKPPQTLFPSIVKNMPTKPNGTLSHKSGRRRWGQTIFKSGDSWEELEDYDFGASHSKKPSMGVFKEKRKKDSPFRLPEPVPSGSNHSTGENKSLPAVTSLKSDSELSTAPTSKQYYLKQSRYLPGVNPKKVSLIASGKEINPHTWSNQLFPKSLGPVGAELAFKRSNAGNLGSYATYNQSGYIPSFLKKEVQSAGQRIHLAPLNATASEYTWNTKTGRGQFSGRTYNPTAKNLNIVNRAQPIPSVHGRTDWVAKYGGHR
In words: Selectivity interaction (KinomeScan (DiscoverX)) EUB0000695a MAK. Conditions: at 100 nM.

The target of assay [5] is Tyrosine-protein kinase Fyn (Homo sapiens) (UniProt P06241). The assay is described as follows: Selectivity interaction (ActivX KiNativ screen (kinase selectivity in THP-1 cell lysates)) EUB0000639a FYN. As to conditions: lysate, at 0.01 µM. It is filed as subcellular.
Assay [6] concerns the target Calcium/calmodulin-dependent protein kinase type II subunit alpha (Homo sapiens, UniProt Q9UQM7). The assay is described as follows: Selectivity interaction (Ambit KINOMEscan and KiNATiv profiling in Jurkat cells) EUB0000090b CAMK2A. It is filed as cell-based. Conditions: at 1 µM.
The target in assay [7] is TRAF2 and NCK-interacting protein kinase (Homo sapiens) (UniProt Q9UKE5). In words: Selectivity interaction (KinomeScan (DiscoverX)) EUB0000092b TNIK. Conditions: at 10 µM.
Sequence of TRAF2 and NCK-interacting protein kinase (Homo sapiens) (Q9UKE5 whole entry, looked up): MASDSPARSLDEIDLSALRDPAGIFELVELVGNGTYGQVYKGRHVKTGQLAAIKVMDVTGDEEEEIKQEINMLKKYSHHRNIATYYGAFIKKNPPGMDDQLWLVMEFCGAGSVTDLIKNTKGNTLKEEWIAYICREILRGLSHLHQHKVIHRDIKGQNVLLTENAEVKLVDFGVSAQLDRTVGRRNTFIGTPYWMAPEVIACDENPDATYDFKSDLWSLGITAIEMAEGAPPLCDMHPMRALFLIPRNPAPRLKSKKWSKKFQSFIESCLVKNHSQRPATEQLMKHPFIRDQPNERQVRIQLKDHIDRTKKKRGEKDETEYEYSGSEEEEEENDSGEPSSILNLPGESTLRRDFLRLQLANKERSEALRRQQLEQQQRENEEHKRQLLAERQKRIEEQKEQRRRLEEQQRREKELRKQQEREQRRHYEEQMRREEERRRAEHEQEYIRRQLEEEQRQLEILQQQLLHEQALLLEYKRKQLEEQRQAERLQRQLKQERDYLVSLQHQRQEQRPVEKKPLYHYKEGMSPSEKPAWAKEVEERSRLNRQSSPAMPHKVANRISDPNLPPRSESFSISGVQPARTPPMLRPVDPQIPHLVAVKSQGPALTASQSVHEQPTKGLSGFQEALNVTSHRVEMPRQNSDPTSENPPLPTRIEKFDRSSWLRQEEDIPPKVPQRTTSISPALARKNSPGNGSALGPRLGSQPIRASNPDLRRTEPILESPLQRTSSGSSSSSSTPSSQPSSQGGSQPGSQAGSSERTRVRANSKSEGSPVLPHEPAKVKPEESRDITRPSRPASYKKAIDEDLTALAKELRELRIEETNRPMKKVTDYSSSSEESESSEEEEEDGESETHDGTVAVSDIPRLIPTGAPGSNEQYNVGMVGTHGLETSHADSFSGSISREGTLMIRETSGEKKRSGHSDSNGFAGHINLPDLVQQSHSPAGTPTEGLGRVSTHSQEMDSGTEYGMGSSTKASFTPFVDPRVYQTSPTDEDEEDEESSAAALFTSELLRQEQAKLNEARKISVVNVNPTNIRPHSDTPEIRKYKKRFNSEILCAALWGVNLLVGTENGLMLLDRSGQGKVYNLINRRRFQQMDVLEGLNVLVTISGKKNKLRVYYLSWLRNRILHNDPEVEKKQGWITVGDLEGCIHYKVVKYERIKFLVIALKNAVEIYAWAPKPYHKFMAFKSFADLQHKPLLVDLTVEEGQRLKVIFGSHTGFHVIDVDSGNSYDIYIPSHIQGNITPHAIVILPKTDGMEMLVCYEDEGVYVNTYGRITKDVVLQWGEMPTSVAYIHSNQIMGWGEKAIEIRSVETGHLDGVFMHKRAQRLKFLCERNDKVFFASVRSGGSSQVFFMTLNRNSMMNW

Sequence of Calcium/calmodulin-dependent protein kinase type II subunit alpha (Q9UQM7 whole entry): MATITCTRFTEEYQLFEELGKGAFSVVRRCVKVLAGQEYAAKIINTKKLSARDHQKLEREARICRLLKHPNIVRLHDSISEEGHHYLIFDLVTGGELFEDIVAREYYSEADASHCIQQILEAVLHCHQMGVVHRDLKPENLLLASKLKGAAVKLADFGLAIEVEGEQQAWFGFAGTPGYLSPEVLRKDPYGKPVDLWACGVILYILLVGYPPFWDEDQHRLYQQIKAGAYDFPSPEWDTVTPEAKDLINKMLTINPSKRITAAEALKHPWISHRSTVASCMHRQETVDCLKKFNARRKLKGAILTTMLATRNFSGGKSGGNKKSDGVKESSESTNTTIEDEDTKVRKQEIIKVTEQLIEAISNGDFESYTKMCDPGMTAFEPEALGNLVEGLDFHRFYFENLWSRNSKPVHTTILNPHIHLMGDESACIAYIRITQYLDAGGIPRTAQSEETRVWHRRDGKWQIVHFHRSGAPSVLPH
Sequence of Tyrosine-protein kinase Fyn (Homo sapiens) (P06241 2-537 limits assumed): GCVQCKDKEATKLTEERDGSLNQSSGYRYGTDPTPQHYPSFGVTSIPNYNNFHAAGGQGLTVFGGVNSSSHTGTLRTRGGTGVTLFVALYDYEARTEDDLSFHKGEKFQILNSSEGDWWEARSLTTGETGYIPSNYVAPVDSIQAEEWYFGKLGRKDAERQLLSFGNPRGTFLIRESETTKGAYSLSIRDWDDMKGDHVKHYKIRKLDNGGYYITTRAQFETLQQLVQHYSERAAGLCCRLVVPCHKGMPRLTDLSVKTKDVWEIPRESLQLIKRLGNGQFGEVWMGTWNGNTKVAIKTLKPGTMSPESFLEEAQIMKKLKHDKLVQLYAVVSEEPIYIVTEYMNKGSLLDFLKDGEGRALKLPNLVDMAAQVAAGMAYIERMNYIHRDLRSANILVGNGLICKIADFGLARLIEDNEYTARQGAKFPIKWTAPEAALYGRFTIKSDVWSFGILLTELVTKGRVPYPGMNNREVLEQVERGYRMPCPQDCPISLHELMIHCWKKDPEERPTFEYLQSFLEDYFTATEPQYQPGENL
Sequence of Mitogen-activated protein kinase kinase kinase kinase 5 (Homo sapiens) (Q9Y4K4 whole entry, looked up): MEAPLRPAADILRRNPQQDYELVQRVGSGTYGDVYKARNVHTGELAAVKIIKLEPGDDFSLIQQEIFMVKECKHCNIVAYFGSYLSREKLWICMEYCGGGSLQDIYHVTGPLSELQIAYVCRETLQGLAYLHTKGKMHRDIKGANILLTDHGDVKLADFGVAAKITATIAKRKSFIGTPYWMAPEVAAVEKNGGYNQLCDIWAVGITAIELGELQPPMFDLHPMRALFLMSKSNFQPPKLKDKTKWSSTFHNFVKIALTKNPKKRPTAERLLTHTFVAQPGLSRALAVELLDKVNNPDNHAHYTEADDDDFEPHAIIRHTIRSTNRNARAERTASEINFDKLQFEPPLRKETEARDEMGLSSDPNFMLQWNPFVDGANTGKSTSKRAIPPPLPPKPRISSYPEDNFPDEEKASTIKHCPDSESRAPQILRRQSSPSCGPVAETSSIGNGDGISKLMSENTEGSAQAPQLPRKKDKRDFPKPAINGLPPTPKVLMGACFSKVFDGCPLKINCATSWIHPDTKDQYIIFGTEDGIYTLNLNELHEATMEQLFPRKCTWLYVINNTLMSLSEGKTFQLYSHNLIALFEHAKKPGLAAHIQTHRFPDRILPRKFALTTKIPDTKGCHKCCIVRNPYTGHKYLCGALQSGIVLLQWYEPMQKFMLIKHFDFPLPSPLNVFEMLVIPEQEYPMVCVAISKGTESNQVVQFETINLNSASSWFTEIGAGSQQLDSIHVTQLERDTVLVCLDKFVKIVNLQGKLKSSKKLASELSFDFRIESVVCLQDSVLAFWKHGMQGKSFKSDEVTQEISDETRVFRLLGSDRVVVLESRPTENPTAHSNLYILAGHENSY
Sequence of Dual specificity protein kinase CLK1 (P49759 whole entry, looked up): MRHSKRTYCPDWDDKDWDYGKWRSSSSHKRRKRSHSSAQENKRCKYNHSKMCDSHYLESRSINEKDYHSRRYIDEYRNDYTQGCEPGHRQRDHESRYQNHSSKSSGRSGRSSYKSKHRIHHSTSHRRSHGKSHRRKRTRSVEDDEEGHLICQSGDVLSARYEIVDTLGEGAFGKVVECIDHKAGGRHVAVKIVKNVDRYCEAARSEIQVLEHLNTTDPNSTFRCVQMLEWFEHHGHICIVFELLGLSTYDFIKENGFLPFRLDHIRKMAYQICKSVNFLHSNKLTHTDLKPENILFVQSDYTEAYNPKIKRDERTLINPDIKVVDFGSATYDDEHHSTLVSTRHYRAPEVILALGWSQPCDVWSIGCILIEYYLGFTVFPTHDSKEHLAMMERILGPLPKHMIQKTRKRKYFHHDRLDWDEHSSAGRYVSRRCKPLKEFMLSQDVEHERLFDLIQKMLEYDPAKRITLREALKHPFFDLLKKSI

With `Cn1cc(-n2cnc3c(NCc4nc5cc(Cl)c(Cl)cc5[nH]4)nc(N4CCOCC4)nc32)cn1`, the % of control in assay [1] worked out at 8.07%.
Regarding `N#Cc1cccc(-c2c[nH]c3ncnc(N4CCOCC4)c23)c1`, the % of inhibition was 5% in assay [2] and 16% in assay [3].
In assay [4], `Cc1cc(F)c(C(=O)Nc2cccc(-c3nncn3C(C)C)n2)cc1-n1cnc(C2CC2)c1` gave a % of control of 100%.
For the compound `CC[C@@H]1[C@H](F)C(=O)N[C@@H]1COc1nccc2cc(C(N)=O)c(OC)cc12` [ZIMLOVISERTIB], the % of inhibition in assay [5] was -8.5%.
Turning to `CN(C)C/C=C/C(=O)Nc1ccc(C(=O)N2CCCC(Nc3ncc(Cl)c(-c4c[nH]c5ccccc45)n3)C2)cc1` (configuration not stated), the % of control in assay [6] is 99%.
The compound `CCC(=O)N1CCN(c2ccc(-n3c(=O)ccc4cnc5ccc(-c6cnc7ccccc7c6)cc5c43)cc2C(F)(F)F)CC1` came in with a % of control in assay [7] of 39%.

For the origin of these results see ChEMBL document CHEMBL5465560, “Selectivity Literature for EUbOPEN Chemogenomic Library” (2024).
